Assay results from patent US20110288154A1, “RNA Interference Mediated Inhibition of Epithelial Sodium Channel (ENaC) Gene Expression Using Short Interfering Nucleic Acid (siNA)” (MERCK & CO., INC., priority 2008, published 2011).
[invAb] = inverted abasic (deoxyabasic) cap; m = 2'-O-methyl; r = 2'-OH (RNA); f = 2'-fluoro

How the values were obtained:
mSCNN1A mRNA = test: Screening of ENaCα siNAs in mouse NIH 3T3 cells (quantitative RT-PCR); format: cell-based; design: Percent Reduction of the mSCNN1A mRNA relative to a non-targeting control siNA / Mouse % KD (efficacy of ENaCα mRNA knockdown): concentration or dose not given beside the values; conditions: mouse NIH 3T3 cells, n = 3
Procedure, shortened: (§1)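 Rat H-4-II-E and mouse NIH 3T3 cells transfected with siNA–Lipofectamine 2000 complexes (25 nM siNA final; dose-response at constant lipid), screened at 24 h. qRT-PCR with ENaCα signal normalized to GAPDH or 36B4; % knockdown relative to non-targeting control siNA, triplicates; IC50 from sigmoidal variable-slope fit.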

rSCNN1A (r ENaCα) mRNA = test: Screening of ENaCα siNAs in Rat H-4-II-E cells (quantitative RT-PCR); format: cell-based; design: Percent Reduction of the r ENaCα mRNA relative to a non-targeting control siNA (NTCs) / Rat % KD (efficacy of ENaCα mRNA knockdown): concentration or dose not given beside the values; conditions: Rat H-4-II-E cells, n = 3
Procedure, shortened: as §1

[1] = harvested 24 hours post-transfection
[2] = housekeeping gene used for normalisation, 24 hours post-transfection

With “B cGcAuGAAGAcGGccuucu TTB / AGAAGGccGucuucAuGcGUU (chain 1 CGCAUGAAGACGGCCUUCUTT; chain 2 AGAAGGCCGUCUUCAUGCGUU; siRNA; chain 1: DNA at AGT, 2'-fluoro at CU, [invAb] at 5' end, 3' end, backbone not given here; chain 2: sugars from the 5' end rrrmmmffmfffffmfmfmmm, backbone not given here) [Site 340]” the “Mean (mSCNN1A expression normalized to the level of m36B4)” value (mSCNN1A mRNA; 24 hours post-transfection) was 0.23, the “Percent Reduction of the mSCNN1A mRNA relative to a non-targeting control siNA” value (mSCNN1A mRNA; 24 hours post-transfection) was 5.4% and the “Avg ENaCα Expression (mSCNN1A)” value (mSCNN1A mRNA; [1]) was 3.35. For the same substance, the “Avg 36B4 Expression” value (mSCNN1A mRNA; [2]) was 14.93, the “Mean (rSCNN1A expression normalized to the level of rGAPDH)” value (rSCNN1A (r ENaCα) mRNA; 24 hours post-transfection) was 1.07 and the “Percent Reduction of the r ENaCα mRNA relative to a non-targeting control siNA (NTCs)” value (rSCNN1A (r ENaCα) mRNA; 24 hours post-transfection) was 16.7%. The “Avg ENaCα Expression (rSCNN1A)” value (rSCNN1A (r ENaCα) mRNA; [1]) was 22.68 and the “Avg GAPDH Expression (rGAPDH)” value (rSCNN1A (r ENaCα) mRNA; [2]) was 21.20.
